Measurements: patent US20240262826A1, “WILD TYPE KIT INHIBITORS” (Blueprint Medicines Corporation, priority 2022, published 2024)

These compounds were tested against wild type c-kit (Homo sapiens (Human), UniProt P10721) (assay: PathScan phospho c-kit (Tyr719) sandwich ELISA in SCF-stimulated M-07e cells (pKIT assay)). Conditions: ELISA assay (values not marked *).
Assay type: cell-based
Summary of the method: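 Serum- and GM-CSF-starved M-07e cells (4 h) pretreated 60 min at 37 °C with an 8-point compound series in duplicate (0.25% DMSO), then stimulated with human SCF (500 ng/mL stock) 10 min at room temperature. Lysate c-kit Tyr719 phosphorylation quantified by sandwich ELISA with TMB read-out; IC50 from 4-parameter logistic fit.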

Chain of wild type c-kit (P10721 26-976): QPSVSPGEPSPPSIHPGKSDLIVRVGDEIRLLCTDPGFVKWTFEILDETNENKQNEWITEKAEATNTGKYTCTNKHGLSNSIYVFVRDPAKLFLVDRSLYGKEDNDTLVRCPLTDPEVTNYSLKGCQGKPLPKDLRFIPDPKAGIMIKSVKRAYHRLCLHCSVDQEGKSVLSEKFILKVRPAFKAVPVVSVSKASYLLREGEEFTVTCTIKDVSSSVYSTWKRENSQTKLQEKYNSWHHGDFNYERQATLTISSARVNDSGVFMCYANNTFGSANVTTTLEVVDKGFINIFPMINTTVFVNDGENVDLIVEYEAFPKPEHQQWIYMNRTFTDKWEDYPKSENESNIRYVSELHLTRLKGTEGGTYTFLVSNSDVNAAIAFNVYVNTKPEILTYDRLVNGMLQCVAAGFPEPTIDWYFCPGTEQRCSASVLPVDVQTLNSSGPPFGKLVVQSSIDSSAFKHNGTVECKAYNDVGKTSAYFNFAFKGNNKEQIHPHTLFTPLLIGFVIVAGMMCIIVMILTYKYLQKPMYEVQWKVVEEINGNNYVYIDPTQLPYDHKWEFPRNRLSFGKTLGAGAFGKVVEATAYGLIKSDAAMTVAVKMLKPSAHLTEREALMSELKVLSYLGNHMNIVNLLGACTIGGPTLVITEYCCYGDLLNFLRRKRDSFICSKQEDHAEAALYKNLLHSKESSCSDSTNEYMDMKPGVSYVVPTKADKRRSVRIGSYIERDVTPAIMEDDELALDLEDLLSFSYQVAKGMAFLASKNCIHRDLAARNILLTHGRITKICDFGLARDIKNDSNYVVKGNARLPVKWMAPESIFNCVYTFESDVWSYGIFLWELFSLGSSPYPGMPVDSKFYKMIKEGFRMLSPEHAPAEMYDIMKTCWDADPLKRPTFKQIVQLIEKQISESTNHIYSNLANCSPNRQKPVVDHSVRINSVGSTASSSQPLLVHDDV

SMILES	IC50 [nM]
O=C(Nc1cc(-c2nnn(C3CC(F)(F)C3)n2)c(C2CC2)cc1Cl)c1cnn2ccc(N3CCOCC3)cc12 [Example 117, N-(2-chloro-4-cyclopropyl-5-(2-(3,3-difluorocyclobutyl)-2H-tetrazol-5-yl)phenyl)-5-morpholinopyrazolo[1,5-a]pyridine-3-carboxamide]	52.7
[2H]C([2H])([2H])c1ccc(-c2nnn(C3CN(C(=O)OC)C3)n2)cc1NC(=O)c1cnn2ccc(NCCOC)cc12 [Example 118, methyl 3-(5-(3-(5-((2-methoxyethyl)amino)pyrazolo[1,5-a]pyridine-3-carboxamido)-4-(methyl-d3)phenyl)-2H-tetrazol-2-yl)azetidine-1-carboxylate]	22.7
CCNc1ccn2ncc(C(=O)Nc3cc(-c4nnn(C5CN(C(=O)OC)C5)n4)ccc3C)c2c1 [Example 127, methyl 3-(5-(3-(5-(ethylamino)pyrazolo[1,5-a]pyridine-3-carboxamido)-4-methylphenyl)-2H-tetrazol-2-yl)azetidine-1-carboxylate]	30.2
COC(=O)N1CC(n2nnc(-c3ccc(C)c(NC(=O)c4cnn5ccc(N[C@@H]6CCOC6)cc45)c3)n2)C1 [Example 129, methyl (R)-3-(5-(4-methyl-3-(5-((tetrahydrofuran-3-yl)amino)pyrazolo[1,5-a]pyridine-3-carboxamido)phenyl)-2H-tetrazol-2-yl)azetidine-1-carboxylate]	29.6
CCNc1ccn2ncc(C(=O)Nc3cc(-c4nnn(C5CN(C(=O)OCC)C5)n4)ccc3C)c2c1 [Example 130, ethyl 3-(5-(3-(5-(ethylamino)pyrazolo[1,5-a]pyridine-3-carboxamido)-4-methylphenyl)-2H-tetrazol-2-yl)azetidine-1-carboxylate]	34.7
COC(=O)N1CC(n2nnc(-c3ccc(C)c(NC(=O)c4cnn5ccc(NCC(F)F)cc45)c3)n2)C1 [Example 131, methyl 3-(5-(3-(5-((2,2-difluoroethyl)amino)pyrazolo[1,5-a]pyridine-3-carboxamido)-4-methylphenyl)-2H-tetrazol-2-yl)azetidine-1-carboxylate]	49
COC(=O)N1CC(n2nnc(-c3ccc(C)c(NC(=O)c4cnn5ccc(N(C)C)cc45)c3)n2)C1 [Example 132, methyl 3-(5-(3-(5-(dimethylamino)pyrazolo[1,5-a]pyridine-3-carboxamido)-4-methylphenyl)-2H-tetrazol-2-yl)azetidine-1-carboxylate]	21.4
CNc1ccn2ncc(C(=O)Nc3cc(-c4nnn(C5CN(C(=O)OC)C5)n4)ccc3C)c2c1 [Example 133, methyl 3-(5-(4-methyl-3-(5-(methylamino)pyrazolo[1,5-a]pyridine-3-carboxamido)phenyl)-2H-tetrazol-2-yl)azetidine-1-carboxylate]	34.5
COC(=O)N1CC(n2nnc(-c3ccc(C)c(NC(=O)c4cnn5ccc(NC[C@H](C)OC)cc45)c3)n2)C1 [Example 134, methyl (S)-3-(5-(3-(5-((2-methoxypropyl)amino)pyrazolo[1,5-a]pyridine-3-carboxamido)-4-methylphenyl)-2H-tetrazol-2-yl)azetidine-1-carboxylate]	32.4
COC[C@@H](C)Nc1ccn2ncc(C(=O)Nc3cc(-c4nnn(C5CN(C(=O)OC)C5)n4)ccc3C)c2c1 [Example 135, methyl (R)-3-(5-(3-(5-((1-methoxypropan-2-yl)amino)pyrazolo[1,5-a]pyridine-3-carboxamido)-4-methylphenyl)-2H-tetrazol-2-yl)azetidine-1-carboxylate]	53.8
COC(=O)N1CC(n2nnc(-c3ccc(C)c(NC(=O)c4cnn5ccc(N[C@H]6CCOC6)cc45)c3)n2)C1 [Example 136, methyl (S)-3-(5-(4-methyl-3-(5-((tetrahydrofuran-3-yl)amino)pyrazolo[1,5-a]pyridine-3-carboxamido)phenyl)-2H-tetrazol-2-yl)azetidine-1-carboxylate]	76.2
CCNc1ccn2ncc(C(=O)Nc3cc(-n4ncc(C5CN(C(=O)OC)C5)n4)ccc3C)c2c1 [Example 137, methyl 3-(2-(3-(5-(ethylamino)pyrazolo[1,5-a]pyridine-3-carboxamido)-4-methylphenyl)-2H-1,2,3-triazol-4-yl)azetidine-1-carboxylate]	16.8
CNc1ccn2ncc(C(=O)Nc3cc(-n4ncc(C5CN(C(=O)OC)C5)n4)ccc3C)c2c1 [Example 138, methyl 3-(2-(4-methyl-3-(5-(methylamino)pyrazolo[1,5-a]pyridine-3-carboxamido)phenyl)-2H-1,2,3-triazol-4-yl)azetidine-1-carboxylate]	13.4
COC(=O)N1CC(n2nnc(-c3ccc(C)c(NC(=O)c4cnn5ccc(NCCO)cc45)c3)n2)C1 [Example 142, Methyl 3-(5-(3-(5-((2-hydroxyethyl)amino)pyrazolo[1,5-a]pyridine-3-carboxamido)-4-methylphenyl)-2H-tetrazol-2-yl)azetidine-1-carboxylate]	17.1
COCCNc1cc2c(C(=O)Nc3cc(-c4nnn(C5CN(C(=O)OC)C5)n4)ccc3C)cnn2cc1C [Example 144, methyl 3-(5-(3-(5-((2-methoxyethyl)amino)-6-methylpyrazolo[1,5-a]pyridine-3-carboxamido)-4-methylphenyl)-2H-tetrazol-2-yl)azetidine-1-carboxylate]	23.4
COC(=O)N1CC(n2nnc(-c3ccc(C)c(NC(=O)c4cnn5ccc(N6CCC(F)(F)CC6)cc45)c3)n2)C1 [Example 147, methyl 3-(5-(3-(5-(4,4-difluoropiperidin-1-yl)pyrazolo[1,5-a]pyridine-3-carboxamido)-4-methylphenyl)-2H-tetrazol-2-yl)azetidine-1-carboxylate]	31.6
Cc1ccc(-c2nnn(C3CN(S(C)(=O)=O)C3)n2)cc1NC(=O)c1cnn2ccc(CCC(C)(C)O)cc12 [Example 155, 5-(3-hydroxy-3-methylbutyl)-N-(2-methyl-5-(2-(1-(methylsulfonyl)azetidin-3-yl)-2H-tetrazol-5-yl)phenyl)pyrazolo[1,5-a]pyridine-3-carboxamide]	55.9
Cc1cc(C)c(-c2nnn(C3CC(F)(F)C3)n2)cc1NC(=O)c1cnn2ccc(N3CCOCC3)cc12 [Example 156, N-(5-(2-(3,3-difluorocyclobutyl)-2H-tetrazol-5-yl)-2,4-dimethylphenyl)-5-morpholinopyrazolo[1,5-a]pyridine-3-carboxamide]	22.1
COC(=O)N1CC(n2nnc(-c3ccc(C)c(NC(=O)c4cnn5cc(N6CCOCC6)ccc45)c3)n2)C1 [Example 159, methyl 3-(5-(4-methyl-3-(6-morpholinopyrazolo[1,5-a]pyridine-3-carboxamido)phenyl)-2H-tetrazol-2-yl)azetidine-1-carboxylate]	20.1

Now those with a lower IC50, led by results:

IC50 [nM]	SMILES
12.4	COCCNc1ccn2ncc(C(=O)Nc3cc(-c4nnn(C5CN(C(=O)OC)C5)n4)ccc3F)c2c1 [Example 115, methyl 3-(5-(4-fluoro-3-(5-((2-methoxyethyl)amino)pyrazolo[1,5-a]pyridine-3-carboxamido)phenyl)-2H-tetrazol-2-yl)azetidine-1-carboxylate]
11.9	Cc1ccc(-c2nnn([C@H]3C[C@H](C(F)(F)F)C3)n2)cc1NC(=O)c1cnn2ccc(NCCO)cc12 [Example 121, 5-((2-hydroxyethyl)amino)-N-(2-methyl-5-(2-((1r,3r)-3-(trifluoromethyl)cyclobutyl)-2H-tetrazol-5-yl)phenyl)pyrazolo[1,5-a]pyridine-3-carboxamide or 5-((2-hydroxyethyl)amino)-N-(2-methyl-5-(2-((1s,3s)-3-(trifluoromethyl)cyclobutyl)-2H-tetrazol-5-yl)phenyl)pyrazolo[1,5-a]pyridine-3-carboxamide]
11.8	COCCNc1ccn2ncc(C(=O)Nc3cc(-n4ncc(C5CN(C(=O)OC)C5)n4)ccc3Cl)c2c1 [Example 111, methyl 3-(2-(4-chloro-3-(5-((2-methoxyethyl)amino)pyrazolo[1,5-a]pyridine-3-carboxamido)phenyl)-2H-1,2,3-triazol-4-yl)azetidine-1-carboxylate]
7.2	COCCNc1ccn2ncc(C(=O)Nc3cc(-n4nnc(C5CN(C(=O)OC)C5)n4)ccc3C)c2c1 [Example 125, methyl 3-(2-(3-(5-((2-methoxyethyl)amino)pyrazolo[1,5-a]pyridine-3-carboxamido)-4-methylphenyl)-2H-tetrazol-5-yl)azetidine-1-carboxylate]
3.5	COCCNc1ccn2ncc(C(=O)Nc3cc(-c4nnn(C5CC(F)(F)C5)n4)c(F)cc3C)c2c1 [Example 105, N-(5-(2-(3,3-difluorocyclobutyl)-2H-tetrazol-5-yl)-4-fluoro-2-methylphenyl)-5-((2-methoxyethyl)amino)pyrazolo[1,5-a]pyridine-3-carboxamide]
3.4	COCCNc1ccn2ncc(C(=O)Nc3cc(-c4nnn(C5CC6(CCC6)C5)n4)ccc3C)c2c1 [Example 150, 5-((2-methoxyethyl)amino)-N-(2-methyl-5-(2-(spiro[3.3]heptan-2-yl)-2H-tetrazol-5-yl)phenyl)pyrazolo[1,5-a]pyridine-3-carboxamide]
3.2	COCCNc1ccn2ncc(C(=O)Nc3cc(-c4nnn(CCCC(F)(F)F)n4)ccc3C)c2c1 [Example 116, 5-((2-methoxyethyl)amino)-N-(2-methyl-5-(2-(4,4,4-trifluorobutyl)-2H-tetrazol-5-yl)phenyl)pyrazolo[1,5-a]pyridine-3-carboxamide]
2.6	Cc1ccc(-c2nnn(C3CC(F)(F)C3)n2)cc1NC(=O)c1cnn2ccc(NCC(F)(F)CO)cc12 [Example 102, 5-((2,2-difluoro-3-hydroxypropyl)amino)-N-(5-(2-(3,3-difluorocyclobutyl)-2H-tetrazol-5-yl)-2-methylphenyl)pyrazolo[1,5-a]pyridine-3-carboxamide]
2.4	Cc1ccc(-c2nnn(C3CC(F)(F)C3)n2)cc1NC(=O)c1cnn2ccc(N3CC(CO)C3)cc12 [Example 103, N-(5-(2-(3,3-difluorocyclobutyl)-2H-tetrazol-5-yl)-2-methylphenyl)-5-(3-(hydroxymethyl)azetidin-1-yl)pyrazolo[1,5-a]pyridine-3-carboxamide]
